Laboratory results reported in US11427783B2, “Perfuming compositions” (Firmenich SA, priority 2016, dated 2022).
Where two headings read alike, the source gives them in different places.

Columns and labels:
[1] = Log P (n-octanol/water) of perfuming compounds
[2] = Volatility of perfuming compounds in air; type: physicochemical
[3] = Odor threshold of perfuming compounds in air
[4] = Table 8, perfuming compounds having a sweet note
[5] = n-octanol/water, perfuming compounds having a fruity note (Table 6)
[6] = Table 9, perfuming compounds having a gourmand note
[7] = Table 6, perfuming compounds having a fruity note

## CC(=O)OC(c1ccccc1)C(Cl)(Cl)Cl (racemic) [(+−)-2,2,2-TRICHLORO-1-PHENYLETHYL ACETATE]
[1]
  Log P (n-octanol/water): 3.20
physchem; n-octanol/water
  logP: 3.2

## O=Cc1ccccc1 [BENZALDEHYDE]
[1]; [4]
  Log P (n-octanol/water): 1.33
physchem
  logP: 1.33

## CC/C=C\CCOC(=O)CCC [(3Z)-3-hexen-1-yl butyrate]
[1]; [5]
  Log P (n-octanol/water): 3.59
physchem; n-octanol/water
  logP: 3.59

## O=C(Cc1ccccc1)OCCc1ccccc1 [2-PHENYLETHYL PHENYLACETATE]
[1]; Table 7, citrus note
  Log P (n-octanol/water): 3.59
[1]; [4]
  Log P (n-octanol/water): 3.59
[1]; [6]
  Log P (n-octanol/water): 3.59
physchem
  logP: 3.59

## CCCCC/C=C\C=C\C(=O)OCC [ethyl (2E,4Z)-2,4-decadienoate]
[1]; [7]
  Log P (n-octanol/water): 4.69
physchem; n-octanol/water
  logP: 4.69

## CC1=C[C@H](C)[C@H]2[C@H](CCC(C)(C)[C@H]2O)C1 (racemic)
[1]; [7]
  Log P (n-octanol/water): 5.24
physchem; n-octanol/water
  logP: 5.24

## CC/C=C\CC/C=C/C=O [(2E,6Z)-2,6-NONADIENAL″, (2E,6Z)-2,6-NONADIENAL]
[2]; Table 4, watery note
  Volatility: 632.43 μg/l air
[2]; Table 5, perfuming compounds having a green note
  Volatility: 632.43 μg/l air
[3]; Table 4, watery note
  Odor Threshold: 1.46E−04 μg/l air

## CC(=O)OC(C)CCC=C(C)CCC=C(C)C (centres unmarked) [1,5,9-TRIMETHYL-4,8-DECADIENYL ACETATE]
[1]; [7]
  Log P (n-octanol/water): 5.28
physchem; n-octanol/water
  logP: 5.28

## CCC(=O)OCc1ccccc1 [BENZYL PROPANOATE]
[1]; [7]
  Log P (n-octanol/water): 2.35
physchem; n-octanol/water
  logP: 2.35

## O=C1CCCCCCC/C=C/CCCCCCO1 [(10E)-oxacycloheptadec-10-en-2-one]
[1]; Table 7, citrus note
  Log P (n-octanol/water): 6.15
physchem; n-octanol/water
  logP: 6.15

## CCCCCC/C=C/C(=O)OC [methyl (2E)-2-nonenoate]
[1]; [5]
  Log P (n-octanol/water): 4.05
physchem; n-octanol/water
  logP: 4.05

## C/C=C/c1ccc(OC(C)=O)c(OC)c1 [(E)-2-METHOXY-4-(1-PROPENYL)PHENYL ACETATE]
[1]; Table 7, citrus note
  Log P (n-octanol/water): 2.56
physchem; n-octanol/water
  logP: 2.56

## C/C=C/C(=O)C1C(C)=CCCC1(C)C (racemic)
[2]; [7]
  Volatility (μg/l air): 113.31 μg/l air
[1]; [7]
  Log P (n-octanol/water): 3.65
[1]; [4]
  Log P (n-octanol/water): 3.65
[1]; Table 10, perfuming compounds having a woody note
  Log P (n-octanol/water): 3.65
physchem; n-octanol/water
  logP: 3.65

## CCCCCCOC(C)=O [HEXYL ACETATE]
[1]; [5]
  Log P (n-octanol/water): 3.09
physchem; n-octanol/water
  logP: 3.09

## CCCC(S)CCOC(C)=O (racemic) [(+−)-3-mercaptohexyl acetate]
[1]; [5]
  Log P (n-octanol/water): 2.64
physchem; n-octanol/water
  logP: 2.64

## CCCCOC(C)=O [BUTYL ACETATE]
[2]
  Volatility (μg/l air): 117207.52 μg/l air
[1]; [4]
  Log P (n-octanol/water): 2.11
[1]; [6]
  Log P (n-octanol/water): 2.11
physchem; n-octanol/water
  logP: 2.11

## O=C(OCc1ccccc1)c1ccccc1 [BENZYL BENZOATE]
[1]; Table 7, citrus note
  Log P (n-octanol/water): 3.64
physchem; n-octanol/water
  logP: 3.64

## CCCCCC1CCCC1=O (racemic) [(+−)-2-pentylcyclopentanone]
[2]; [4]
  Volatility (μg/l air): 560.22 μg/l air
[2]; [6]
  Volatility (μg/l air): 560.22 μg/l air
[1]; [4]
  Log P (n-octanol/water): 3.62
[1]; [6]
  Log P (n-octanol/water): 3.62
physchem; n-octanol/water
  logP: 3.62

## CCCCCC/C(C=O)=C\c1ccccc1 [(2E)-2-benzylideneoctanal]
[1]; [7]
  Log P (n-octanol/water): 4.86
physchem; n-octanol/water
  logP: 4.86

## C=CCCCCCCCCO [9-DECEN-1-OL]
[1]; Table 7, citrus note
  Log P (n-octanol/water): 3.70
physchem; n-octanol/water
  logP: 3.7

## CCCC(=O)OCC [ETHYL BUTANOATE]
[1]; [5]
  Log P (n-octanol/water): 2.03
physchem; n-octanol/water
  logP: 2.03

## C=CCCC(=O)C1=CCCC(C)(C)C1 [1-(5,5-dimethyl-1-cyclohexen-1-yl)-4-penten-1-one]
[1]; [7]
  Log P (n-octanol/water): 3.89
physchem; n-octanol/water
  logP: 3.89

## C=CC(C)(O)CCC=C(C)C (racemic) [(+−)-3,7-dimethyl-1,6-octadien-3-ol]
[3]; Table 7, citrus note
  Odor Threshold: 8.89E−05 μg/l air

## CCCCC/C(C=O)=C\c1ccccc1 [(E)-2-PENTYL-3-PHENYL-2-PROPENAL]
[1]; Table 7, citrus note
  Log P (n-octanol/water): 4.30
physchem; n-octanol/water
  logP: 4.3

## CC(=O)OCC=C(C)C [3-methyl-2-buten-1-yl acetate]
[1]; [5]
  Log P (n-octanol/water): 2.19
physchem; n-octanol/water
  logP: 2.19

## COc1cc(C=O)ccc1OC(=O)C(C)C
[2]; [7]
  Volatility (μg/l air): 1.01 μg/l air
[2]; [4]
  Volatility (μg/l air): 1.01 μg/l air
[2]; [6]
  Volatility (μg/l air): 1.01 μg/l air
[1]; [4]
  Log P (n-octanol/water): 1.90
[1]; [6]
  Log P (n-octanol/water): 1.90
physchem; n-octanol/water
  logP: 1.9

## CCCCCCCC1CCCC(=O)O1 (racemic) [(+−)-6-heptyltetrahydro-2H-pyran-2-one]
[2]; [7]
  Volatility (μg/l air): 0.90 μg/l air
[2]; [4]
  Volatility (μg/l air): 0.90 μg/l air
[2]; [6]
  Volatility (μg/l air): 0.90 μg/l air
[1]; [4]
  Log P (n-octanol/water): 3.42
[1]; [6]
  Log P (n-octanol/water): 3.42
physchem; n-octanol/water
  logP: 3.42

## CCCCC/C=C/CCC=O [(E)-4-DECENAL]
[2]; Table 7, citrus note
  Volatility: 691.34 μg/l air
[3]; Table 7, citrus note
  Odor Threshold: 7.59E−05 μg/l air
